Assay results as given in the supplement of paper PMC10307832.

Experiments:
Test in all cases: relative viability (nuclei count vs DMSO), 5 days (fraction); higher = more cells survive
NCI-H2023 = system: NCI-H2023
Summary of the method: (§1)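 Medians of duplicate plates are given as relative viability. That measure is the nuclei count in treated wells divided by the count in vehicle wells. Counts were taken on 4× images of lung cancer cell lines in 1536-well plates, 5 days after pin-tool dosing the day after seeding with one drug alone or a fixed anchor-drug dose plus five library-drug doses (not always all listed) in √10 steps.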

UMC-11 = system: UMC-11
Summary of the method: as §1

NCI-H1395 = system: NCI-H1395
Summary of the method: as §1

NCI-H1563 = system: NCI-H1563
Summary of the method: as §1

NCI-H1915 = system: NCI-H1915
Summary of the method: as §1

CAL-12T = system: CAL-12T
Summary of the method: as §1

NCI-H1734 = system: NCI-H1734
Summary of the method: as §1

NCI-H2405 = system: NCI-H2405
Summary of the method: as §1

HCC-44 = system: HCC-44
Summary of the method: as §1

A-427 = system: A-427
Summary of the method: as §1

SW 1573 = system: SW 1573
Summary of the method: as §1

EPLC-272H = system: EPLC-272H
Summary of the method: as §1

LCLC-97TM1 = system: LCLC-97TM1
Summary of the method: as §1

NCI-H2347 = system: NCI-H2347
Summary of the method: as §1

NCI-H1975 = system: NCI-H1975
Summary of the method: as §1

COR-L 105 = system: COR-L 105
Summary of the method: as §1

NCI-H520 = system: NCI-H520
Summary of the method: as §1

NCI-H838 = system: NCI-H838
Summary of the method: as §1

HCC-15 = system: HCC-15
Summary of the method: as §1

NCI-H1792 = system: NCI-H1792
Summary of the method: as §1

LC-2-ad = system: LC-2-ad
Summary of the method: as §1

`Cc1csc(=NC2CCCCC2)n1/N=C/c1ccc(O)c(O)c1O` [MIM1] + CS(=O)(=O)N1CCN(Cc2cc3nc(-c4cccc5[nH]ncc45)nc(N4CCOCC4)c3s2)CC1 [Pictilisib] (partner 1 µM) was tested, and the relative viability (NCI-H2023; first compound 0.2 µM) was 0.238, the relative viability (NCI-H2023; first compound 0.6325 µM) was 0.26 and the relative viability (NCI-H2023; first compound 2 µM) was 0.226. It also gave a relative viability (NCI-H2023; first compound 6.325 µM) of 0.126, a relative viability (NCI-H2023; first compound 20 µM) of 0.067 and a relative viability (UMC-11; first compound 0.2 µM) of 0.753. For the same compound, the relative viability (UMC-11; first compound 0.6325 µM) was 0.203, the relative viability (UMC-11; first compound 2 µM) was 0.853 and the relative viability (UMC-11; first compound 6.325 µM) was 0.687. The relative viability (UMC-11; first compound 20 µM) was 0.17, the relative viability (NCI-H1395; first compound 0.2 µM) was 0.666 and the relative viability (NCI-H1395; first compound 0.6325 µM) was 0.61. It also gave a relative viability (NCI-H1395; first compound 2 µM) of 0.509, a relative viability (NCI-H1395; first compound 6.325 µM) of 0.377 and a relative viability (NCI-H1395; first compound 20 µM) of 0.365. It also gave a relative viability (NCI-H1563; first compound 0.2 µM) of 0.628, a relative viability (NCI-H1563; first compound 0.6325 µM) of 0.672 and a relative viability (NCI-H1563; first compound 2 µM) of 0.636. It also gave a relative viability (NCI-H1563; first compound 6.325 µM) of 0.61, a relative viability (NCI-H1563; first compound 20 µM) of 0.4 and a relative viability (NCI-H1915; first compound 0.2 µM) of 1. For the same compound, the relative viability (NCI-H1915; first compound 0.6325 µM) was 0.606, the relative viability (NCI-H1915; first compound 2 µM) was 0.883 and the relative viability (NCI-H1915; first compound 6.325 µM) was 0.708. It also gave a relative viability (NCI-H1915; first compound 20 µM) of 0.477, a relative viability (CAL-12T; first compound 0.2 µM) of 0.394 and a relative viability (CAL-12T; first compound 2 µM) of 0.473. The relative viability (CAL-12T; first compound 6.325 µM) was 0.453, the relative viability (CAL-12T; first compound 20 µM) was 0.233 and the relative viability (NCI-H1734; first compound 0.2 µM) was 0.501. It also gave a relative viability (NCI-H1734; first compound 0.6325 µM) of 0.408, a relative viability (NCI-H1734; first compound 2 µM) of 0.442 and a relative viability (NCI-H1734; first compound 6.325 µM) of 0.351. It also gave a relative viability (NCI-H1734; first compound 20 µM) of 0.266, a relative viability (NCI-H2405; first compound 0.2 µM) of 0.431 and a relative viability (NCI-H2405; first compound 0.6325 µM) of 0.52. It also gave a relative viability (NCI-H2405; first compound 2 µM) of 0.506, a relative viability (NCI-H2405; first compound 6.325 µM) of 0.418 and a relative viability (NCI-H2405; first compound 20 µM) of 0.546. For the same compound, the relative viability (HCC-44; first compound 0.2 µM) was 0.811, the relative viability (HCC-44; first compound 0.6325 µM) was 0.589 and the relative viability (HCC-44; first compound 2 µM) was 0.61. It also gave a relative viability (HCC-44; first compound 6.325 µM) of 0.356, a relative viability (HCC-44; first compound 20 µM) of 0.198 and a relative viability (A-427; first compound 0.2 µM) of 0.659. For the same compound, the relative viability (A-427; first compound 0.6325 µM) was 0.469, the relative viability (A-427; first compound 2 µM) was 0.671 and the relative viability (A-427; first compound 6.325 µM) was 0.743. For the same compound, the relative viability (A-427; first compound 20 µM) was 0.214, the relative viability (SW 1573; first compound 0.2 µM) was 0.478 and the relative viability (SW 1573; first compound 0.6325 µM) was 0.508. For the same compound, the relative viability (SW 1573; first compound 2 µM) was 0.592, the relative viability (SW 1573; first compound 6.325 µM) was 0.461 and the relative viability (SW 1573; first compound 20 µM) was 0.35. The relative viability (EPLC-272H; first compound 0.2 µM) was 0.355, the relative viability (EPLC-272H; first compound 0.6325 µM) was 0.339 and the relative viability (EPLC-272H; first compound 2 µM) was 0.334. It also gave a relative viability (EPLC-272H; first compound 6.325 µM) of 0.3, a relative viability (EPLC-272H; first compound 20 µM) of 0.235 and a relative viability (LCLC-97TM1; first compound 0.2 µM) of 0.22. The relative viability (LCLC-97TM1; first compound 0.6325 µM) was 0.178, the relative viability (LCLC-97TM1; first compound 2 µM) was 0.228 and the relative viability (LCLC-97TM1; first compound 6.325 µM) was 0.18. It also gave a relative viability (LCLC-97TM1; first compound 20 µM) of 0.108, a relative viability (NCI-H2347; first compound 0.2 µM) of 0.885 and a relative viability (NCI-H2347; first compound 0.6325 µM) of 0.733. For the same compound, the relative viability (NCI-H2347; first compound 2 µM) was 0.72, the relative viability (NCI-H2347; first compound 6.325 µM) was 0.619 and the relative viability (NCI-H2347; first compound 20 µM) was 0.359. The relative viability (NCI-H1975; first compound 0.2 µM) was 0.275, the relative viability (NCI-H1975; first compound 0.6325 µM) was 0.312 and the relative viability (NCI-H1975; first compound 2 µM) was 0.251. For the same compound, the relative viability (NCI-H1975; first compound 6.325 µM) was 0.209, the relative viability (NCI-H1975; first compound 20 µM) was 0.312 and the relative viability (COR-L 105; first compound 0.2 µM) was 0.424. It also gave a relative viability (COR-L 105; first compound 0.6325 µM) of 0.366, a relative viability (COR-L 105; first compound 2 µM) of 0.344 and a relative viability (COR-L 105; first compound 6.325 µM) of 0.384. It also gave a relative viability (COR-L 105; first compound 20 µM) of 0.291, a relative viability (NCI-H520; first compound 0.2 µM) of 0.302 and a relative viability (NCI-H520; first compound 0.6325 µM) of 0.287. It also gave a relative viability (NCI-H520; first compound 2 µM) of 0.295, a relative viability (NCI-H520; first compound 6.325 µM) of 0.235 and a relative viability (NCI-H520; first compound 20 µM) of 0.246. The relative viability (NCI-H838; first compound 0.2 µM) was 0.415, the relative viability (NCI-H838; first compound 0.6325 µM) was 0.468 and the relative viability (NCI-H838; first compound 2 µM) was 0.397. The relative viability (NCI-H838; first compound 6.325 µM) was 0.357, the relative viability (NCI-H838; first compound 20 µM) was 0.2 and the relative viability (HCC-15; first compound 0.2 µM) was 0.872. The relative viability (HCC-15; first compound 0.6325 µM) was 0.455, the relative viability (HCC-15; first compound 2 µM) was 0.824 and the relative viability (HCC-15; first compound 6.325 µM) was 0.53. It also gave a relative viability (HCC-15; first compound 20 µM) of 0.11, a relative viability (NCI-H1792; first compound 0.2 µM) of 0.296 and a relative viability (NCI-H1792; first compound 0.6325 µM) of 0.293. It also gave a relative viability (NCI-H1792; first compound 2 µM) of 0.26, a relative viability (NCI-H1792; first compound 6.325 µM) of 0.252 and a relative viability (NCI-H1792; first compound 20 µM) of 0.221. The relative viability (LC-2-ad; first compound 0.2 µM) was 0.437, the relative viability (LC-2-ad; first compound 0.6325 µM) was 0.373 and the relative viability (LC-2-ad; first compound 2 µM) was 0.508. The relative viability (LC-2-ad; first compound 6.325 µM) was 0.406 and the relative viability (LC-2-ad; first compound 20 µM) was 0.12.
